Source: the RepoRT retention time repository (doi:10.1016/j.talanta.2015.03.003)

assay: RP, Merck Supelco Ascentis Express C18, 150 × 2.1 mm, 2.7 µm, 55 °C, 0.26 mL/min, estimated dead time 1.3 min; A: 60% water + 40% acetonitrile + 0.1% formic acid + 10 mM ammonium formate; B: 10% acetonitrile + 90% isopropanol + 0.1% formic acid + 10 mM ammonium formate; gradient (min/%B) 0/32 1.5/32 4/45 5/52 8/58 11/66 14/70 18/75 21/97 25/97 25.1/32 30/32; details: stereoisomer not certain

Row | LC retention time | SMILES
1 | 24.2 min | CCCCCCCCC=CCCCCCCCC(=O)OCC(COC(=O)CCCCCCCC=CCCCCCCCC)OC(=O)CCCCCCCC=CCCCCCCCC (centres undefined) [glyceryltrioleate]
2 | 11.3 min | CC(C)CCCC(C)C1CCC2C3CCC4CC(O)CCC4(C)C3CCC12C (centres undefined) [Cholestanol]
3 | 16 min | CCC(C=CC(C)C1CCC2C3CC=C4CC(O)CCC4(C)C3CCC12C)C(C)C (centres undefined) [stigmasterol]
4 | 2.1 min | CC(CCC(=O)O)C1CCC2C3CC(O)C4CC(O)CCC4(C)C3CCC12C (centres undefined) [HDCA]
5 | 2.7 min | CC(=O)C1CCC2C3CCC4=CC(=O)CCC4(C)C3CCC12C (centres undefined) [Progesterone]
6 | 11 min | CCCCCCCCCCCCCCCCC(=O)O [margaric acid]
7 | 1.9 min | CC(CCC(=O)O)C1CCC2C3C(O)C(O)C4CC(O)CCC4(C)C3CCC12C (centres undefined) [MCA]
8 | 14.9 min | NC(COP(=O)(O)O)C(=O)O (centres undefined) [PS]
9 | 10.3 min | CCCCCCCCC=CCCCCCCCC(=O)O [oleic_acid]
10 | 7.6 min | CC1CCC2(CO)CCC3(C)C(=CCC4C5(C)CCC(O)C(C)(C)C5CCC43C)C2C1C (centres undefined) [uvaol]
11 | 15.8 min | CCCCCCCCCCCCCCCCCCCCCC(=O)O [BehenicAcid]
12 | 5.4 min | CCCCCCCCCCCCCCCC(=O)OC(CC(=O)[O-])C[N+](C)(C)C (centres undefined) [C16-CAR]
13 | 12 min | CCCCCCCCCCCCCCCCCC(=O)O [StearicAcid]
14 | 19.4 min | CCCCCCCCCCCCCC=CC(O)C(CO)NC(=O)CCCCCCCCCCCCCCCCC (centres undefined) [CER_893]
15 | 7 min | CCCCCCC=CCCCCCCCC(=O)OCC(O)CO (racemic) [1monopalmitoleoyl-rac-GL]
16 | 15.2 min | C=C(C)C1CCC2(C)CCC3(C)C(CCC4C5(C)CCC(O)C(C)(C)C5CCC43C)C12 (centres undefined) [lupeol]
17 | 2.1 min | CC(CCC(=O)NCC(=O)O)C1CCC2C3CCC4CC(O)CCC4(C)C3CC(O)C12C (centres undefined) [G-DCA]
18 | 2 min | NC(CF)(C(=O)O)C(O)CCc1ccccc1 (centres undefined) [T-LCA]
19 | 10.3 min | CCCCCCC=CCCCCCCCCCC(=O)O [cis-vaccenic_acid]
20 | 5.6 min | CC(CCC(=O)O)C1CCC2C3CCC4CC(O)CCC4(C)C3CCC12C (centres undefined) [LCA]

Row | LC retention time | SMILES
21 | 23.6 min | CCCCCC=CCC=CCCCCCCCC(=O)OCC(COC(=O)CCCCCCCC=CCC=CCCCCC)OC(=O)CCCCCCCC=CCC=CCCCCC (centres undefined) [Glyceryltrilinoleate]
22 | 3.5 min | CC(CCC(=O)O)C1CCC2C3CCC4CC(O)CCC4(C)C3CC(O)C12C (centres undefined) [DCA]
23 | 8.4 min | CCC=CCC=CCC=CCC=CCC=CCC=CCCC(=O)O [DocosahexaenoicAcid]
24 | 8.4 min | CCCCCCC=CCCCCCCCC(=O)O [palmitoleic_acid]
25 | 8.9 min | CCCCC/C=C\C/C=C\CCCCCCCC(=O)O [linoleic acid]
26 | 17.8 min | CCCCCCCCCCCCCCCCCCCCCCCC(=O)O [lignoceric acid]
27 | 12.6 min | CCC(CCC(C)C1CCC2C3CC=C4CC(OC5OC(CO)C(O)C(O)C5O)CCC4(C)C3CCC12C)C(C)C (centres undefined) [betaSitosterolglucoside]
28 | 2.9 min | CC(CCC(=O)NCC(=O)O)C1CCC2C3CCC4CC(O)CCC4(C)C3CCC12C (centres undefined) [G-LCA]
29 | 12.8 min | CC(C)CCCC(C)C1CCC2C3CC4OC45CC(O)CCC5(C)C3CCC12C (centres undefined) [Chol_Epoxide]
30 | 8 min | CCCCCCCCCCCCCC(=O)O [MirysticAcid]
31 | 15.7 min | CCCCCCCCC=CCCCCCCCC(=O)OCC(COP(=O)(O)OCC(O)CO)OC(=O)CCCCCCCC=CCCCCCCCC (centres undefined) [1,2dioleoyl_GLP_Na]
32 | 17.4 min | CCCCCCCCC=CCCCCCCCC(=O)OCC(COP(=O)(O)OCCN)OC(=O)CCCCCCCC=CCCCCCCCC (centres undefined) [1,2dioleoyl_PE]
33 | 7.8 min | CCC=CCC=CCC=CCCCCCCCC(=O)O [linolenic acid]
34 | 15.1 min | CC(C)C(C)C=CC(C)C1CCC2C3CC=C4CC(O)CCC4(C)C3CCC12C (centres undefined) [brassicasterol]
35 | 9.2 min | CC(C)CCCC(C)C1CCC2C3CCC4CCCCC4(C)C3CCC12C (centres undefined) [5alfa-colestane]
36 | 14 min | CCCCCCCCC=CCCCCCCCCCCCC(=O)O [erucic acid]
37 | 14.2 min | CC(C)C(C)C=CC(C)C1CCC2C3=CC=C4CC(O)CCC4(C)C3CCC21C (centres undefined) [ergosterol]
38 | 16.6 min | CCC(CCC(C)C1CCC2C3CC=C4CC(O)CCC4(C)C3CCC12C)C(C)C (centres undefined) [BSitosterol]
39 | 13.8 min | CC(C)=CCCC(C)C1CCC2C3CC=C4CC(O)CCC4(C)C3CCC12C (centres undefined) [desmosterol]
40 | 1.6 min | CC(CCC(=O)NCCS(=O)(=O)O)C1CCC2C3CCC4CC(O)CCC4(C)C3CC(O)C12C (centres undefined) [T-DCA]

Row | LC retention time | SMILES
41 | 5.9 min | CCCCCCCCCCCCCCCC(=O)OCC(O)COP(=O)([O-])OCC[N+](C)(C)C (centres undefined) [1-palmitoyl-sn-glycero-3PC]
42 | 24.2 min | CCCCCCCCCCCCCCCC(=O)OCC(COC(=O)CCCCCCCCCCCCCCC)OC(=O)CCCCCCCCCCCCCCC [glyceryltripalmitate]
43 | 7.6 min | CCCCCC=CCC=CCCCCCCCC(=O)OCC(O)CO (racemic) [1linoleoyl-rac-GL]
44 | 24.9 min | CCCCCCCCCCCCCCCCCC(=O)OCC(COC(=O)CCCCCCCCCCCCCCCCC)OC(=O)CCCCCCCCCCCCCCCCC [glyceryltristearate]
45 | 5.8 min | CCCCCCCCC=CCCCCCCCC(=O)OC(CC(=O)[O-])C[N+](C)(C)C (centres undefined) [Oleoyl-CAR]
46 | 6.6 min | CCCCC=CCCCCCCCC(=O)O [MiristoleicAcid]
47 | 15 min | CC(C)=CCCC(C)C1CCC2(C)C3=C(CCC12C)C1(C)CCC(O)C(C)(C)C1CC3 (centres undefined) [lanosterol]
48 | 17 min | CCCCCCCCC=CCCCCCCCC(=O)OCC(COP(=O)([O-])OCC[N+](C)(C)C)OC(=O)CCCCCCCC=CCCCCCCCC (centres undefined) [1,2dioleoyl_PC]
49 | 9.9 min | CCCCCCCCCCCCCCCC(=O)O [palmitic_acid]
50 | 8.8 min | CCCCCCCCC=CCCCCCCCC(=O)OCC(O)CO (stereo not drawn) [1oleoyl_rac_GL]
51 | 4.3 min | CCCCCCCCCCCCCC=CC(O)C(N)CO [D-sphingosine]
52 | 15.3 min | CC(C)CCCC(C)C1CCC2C3CC=C4CC(O)CCC4(C)C3CCC12C (centres undefined) [CHOLESTEROL]
53 | 12.2 min | CCCCCCCC/C=C\CCCCCCCCCC(=O)O [cis-11-eicosenoic acid]
54 | 13.9 min | CCCCCCCCCCCCCCCCCCCC(=O)O [arachidic acid]
55 | 1.6 min | CC(CCC(=O)NCC(=O)O)C1CCC2C3C(O)CC4CC(O)CCC4(C)C3CC(O)C12C (centres undefined) [G-CA]
56 | 16 min | CC(C)C(C)CCC(C)C1CCC2C3CC=C4CC(O)CCC4(C)C3CCC12C (centres undefined) [campesterol]
57 | 14.7 min | CCCCCC=CCC=CCCCCCCCC(=O)OCC(COP(=O)(O)OCC[N+](C)(C)C)OC(=O)CCCCCCCC=CCC=CCCCCC (centres undefined) [1,2dilinoleoyl_PC]
58 | 2.2 min | CC(CCC(=O)O)C1CCC2C3C(O)CC4CC(O)CCC4(C)C3CC(O)C12C (centres undefined) [CA]
59 | 24.2 min | CCCCCCC=CCCCCCCCC(=O)OCC(COC(=O)CCCCCCCC=CCCCCCC)OC(=O)CCCCCCCC=CCCCCCC (centres undefined) [glyceryltripalmitoleate]
